PMC8875489, “Pharmaceutical and Safety Profile Evaluation of Novel Selenocompounds with Noteworthy Anticancer Activity” (Pharmaceutics, 2022)
“Also recorded” adds a separate entry of the source.

Columns and labels:
[1] = tested on: human liver microsomes (HLMs); experiment: In vitro microsomal biotransformation test with TRIS buffer and solvent controls (LC-MS/MS); assay type: in vitro ADME; details: for stability in DMSO: organic solvent, LC-MS/MS
Procedure: The assessment of the metabolites generated in the in vitro microsomal biotransformation of the selenoester EDA-71 in liver microsomes was performed following a previously described protocol with minor modifications. Only this compound was evaluated because it combined an optimal solubility to be analyzed in this procedure with very significant activity. The protocol is provided in full detail in the Supplementary Materials. Briefly, the compound was exposed to microsomes for 2 h, and the mixture was later analyzed with LC–MS/MS to detect the generated metabolites.
In the next step of the research, a biochemical in vitro method with the use of human liver microsomes (HLMs) was applied to determine the metabolic activity of the compound EDA-71. This human liver microsomal model provides all the enzymes required for the phase I metabolism reactions (hydrolysis, oxidation, and reduction). Moreover, it is also possible, in certain conditions following the addition of all necessary cofactors, to conduct metabolism II phase reactions (glutathione transferase and N-acetyltransferase enzymatic reactions). In the drug discovery process, the microsomal is a standard in vitro method for the metabolism evaluation. Additionally, this assay can predict the biotransformation kinetics and intrinsic clearance of new derivatives. Finally, these biotransformation processes can be easily monitored with LC–MS/MS.
The NADPH-regenerating system, which contained a phosphate buffer (pH = 7.4; NADP^+, glucose-6-phosphate, and glucose-6-phosphate dehydrogenase), was used. The biotransformation process was monitored with the LC–MS/MS method at the end of the procedure at 2 h after the incubation.
This experimental fact prevented the detailed analysis of metabolic stability. […] Thus, the tested compounds were dissolved in DMSO immediately before the experiment to minimize the degradation risk. […]
1.4. In vitro metabolic stability evaluation in microsomes
1.4.1. Microsomal metabolic stability protocol
For the microsomal stability assay, the selenoester EDA-71 was selected. Before the experimental procedure, the HLMs and solutions necessary for preparing the regenera-tion fraction were stored at -80° C and TRIS buffer at 4° C. The NADP+ regeneration frac-tion was prepared freshly, at the day of the experiment.
1.4.2. Preparation of the working solutions and microsomal regeneration fraction In the first step of the experiment, after selection of the compounds, the 1000 μM working solution was prepared in the TRIS buffer (0.1 M, pH 7.5) from the 10 mM stocks in DMSO. Then, the fresh regeneration fraction was prepared from the 220 μL TRIS buffer, 25 μL of the “A” solution and 5 μL of the “B” solution.
1.4.3. Human liver microsomes and solvent controls
Further, two controls have been prepared: solvent control (142 μL of TRIS buffer with 8 μL of HLMs, 50 μL of the regeneration fraction and 200 μL of the pure methanol) and tested compound control (190 μL of TRIS buffer with 10 μL of the 1 mM tested compound solution and 200 μL of methanol). The biotransformation was carried out at the precise concentration of 1 mg/mL of HLMs.
1.4.4. Biotransformation performance
In the next step 132 μL of TRIS buffer were added into a sterile eppendorf. After that, 10 μL of 1000 μM solution of tested compound in TRIS buffer were added to the above-mentioned eppendorf and then, 8 μL of HLMs. The final concentration of tested com-pound was 50 μM. After gently mixing on the vortex, reaction mixture was preincubated for 5 minutes at 37° C on the thermoblock. Then, in the further step, the reaction was ini-tiated by adding 50 μL of the NADP+ regeneration fraction and incubated at 37° C for 2 h.
After that time, to terminate the reaction, the 200 μL of pure, cold methanol (for LC-MS/MS analysis) was added to probe, which contained the tested compound with HLMs.
Moreover, the same amount of cold methanol was added into the control sample with […]

[2] = tested on: Salmonella Typhimurium TA100 strain; experiment: Reference experiment: impact on Salmonella Typhimurium growth (OD600); assay type: cell-based, Salmonella enterica serovar Typhimurium; details: 1 and 10 µM, 20 h, 37 °C
Procedure: Therefore, a reference experiment with 20 h of incubation at constant temperature conditions (37 °C) was performed in order to determine the effect of the tested compounds on the growth of the Salmonella Typhimurium used in the Ames test. […] Therefore, this method could be successfully applied to determine the safety profile of the tested derivatives.
it indicated the occurrence of cytotoxic events.
Salmonella Typhimurium growth
microplate assay. During the experiment, Salmonella Typhimurium TA100 strain was cul-
At the day of the experiment,
tions of 25 μM and 250 μM) respectively. The final compound and mutagenic agent con-
References in Supplementary (same numeration than in manuscript)
Appl Biochem Biotechnol, 2018, 184(1), 124-139.
Karczewska, E.; Kieć-Kononowicz, K.; Handzlik, J.; Jacob, C. Pronounced activity of aromatic selenocyanates against multidrug
Chem Biol Drug Res, 2017, 90(6), 1295-1306.
Drug Des Devel Ther, 2016,
icity of Environmental Samples. Environ Mol Mutagen, 2010, 51(1), 31-38.
stranded DNA is characterized by guanine to pyrimidine transversions. Nucleic Acids Res, 1992, 20(6), 1283-1287.

C[Se]C(=O)c1cccc(C(=O)[Se]C)n1 [EDA-119, Se,Se-dimethyl pyridine-2,6-bis(carboselenoate)]
stability in DMSO [1]: stable

O=C1[Se]C(=O)c2ccccc21 [EDA-A6, benzo[c]selenophene-1,3-dione]
stability in DMSO [1]: stable

COC(=O)C[Se]C(=O)c1cc(OC)cc(OC)c1 [EDA-58, methyl 2-((3,5-dimethoxybenzoyl)selanyl)acetate]
stability in DMSO [1]: stable

CC(=O)C[Se]C(=O)c1ccc(Cl)cc1 [EDA-71, Se-(2-oxopropyl) 4-chlorobenzoselenoate]
stability in TRIS buffer and LC-MS/MS analysis conditions ([1]; TRIS buffer pH = 7.4, control of microsomal assay): may not be stable; also recorded: unstable
stability in DMSO [1]: stable

C[Se]C(=O)c1ccc(C(=O)[Se]C)s1 [EDA-122, Se,Se-dimethyl thiophene-2,5-bis(carboselenoate)]
stability in DMSO [1]: stable

C[Se]C(=O)c1ccc(C(=O)[Se]C)cc1 [EDA-109, Se,Se-dimethyl benzene-1,4-bis(carboselenoate)]
effect on the growth of Salmonella Typhimurium [2]: stimulating effect on the growth
